Reference: ChEMBL document CHEMBL1153885, “Design, synthesis and evaluation of novel uracil acetamide derivatives as potential inhibitors of Plasmodium falciparum dUTP nucleotidohydrolase” (Eur J Med Chem, 2009)

Tests used:
[1] = Selectivity ratio of human dUTPase to Plasmodium falciparum dUTPase
L6 = test: Cytotoxicity against rat L6 cells; type: cell-based
dUTP pyrophosphatase = target: T1, dUTP pyrophosphatase (Plasmodium falciparum 3D7, UniProt Q8II92); test: Inhibition of Plasmodium falciparum dUTPase
T1 sequence (Q8II92 whole entry): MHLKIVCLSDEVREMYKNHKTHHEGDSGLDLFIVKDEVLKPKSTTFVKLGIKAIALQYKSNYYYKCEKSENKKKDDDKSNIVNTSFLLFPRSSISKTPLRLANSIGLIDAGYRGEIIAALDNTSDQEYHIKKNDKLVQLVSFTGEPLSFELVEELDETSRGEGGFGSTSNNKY

[2] = target: T2, Deoxyuridine 5'-triphosphate nucleotidohydrolase, mitochondrial (Homo sapiens, UniProt P33316); test: Inhibition of human dUTPase
T2 sequence (P33316 whole entry): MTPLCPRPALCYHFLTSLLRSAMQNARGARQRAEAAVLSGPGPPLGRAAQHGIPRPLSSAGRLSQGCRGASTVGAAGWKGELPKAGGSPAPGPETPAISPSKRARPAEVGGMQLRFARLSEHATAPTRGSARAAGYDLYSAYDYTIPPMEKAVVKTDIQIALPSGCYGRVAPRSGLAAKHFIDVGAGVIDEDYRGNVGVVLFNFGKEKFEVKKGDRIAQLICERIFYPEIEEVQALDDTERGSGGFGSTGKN

Plasmodium falciparum = test: Antiplasmodial activity against chloroquine-resistant Plasmodium falciparum K1 infected erythrocytes; type: functional, organism-based

For `O=c1ccn(CCCCCCNC(c2ccccc2)(c2ccccc2)c2ccccc2)c(=O)[nH]1`, the Selectivity Index [1] was > 555 and the Activity (L6) was 40 µM.
In the case of `O=C(Cn1ccc(=O)[nH]c1=O)NCCNCCNC(c1ccccc1)(c1ccccc1)c1ccccc1`, the Ki (dUTP pyrophosphatase) is reported as > 1000 µM, the Ki [2] is reported as > 1000 µM and the Selectivity Index [1] is reported as > 1. The IC50 (Plasmodium falciparum) was 4.5 µM and the Activity (L6) was 52.7 µM.
With `O=C(Cn1ccc(=O)[nH]c1=O)NCCCNCCCNC(c1ccccc1)(c1ccccc1)c1ccccc1` the Ki (dUTP pyrophosphatase) was > 1000 µM, the Ki [2] was > 1000 µM and the Selectivity Index [1] was > 1. For the same molecule, the IC50 (Plasmodium falciparum) was 3.9 µM and the Activity (L6) was 76.7 µM.
In the case of `O=c1ccn(CCCCCNC(c2ccccc2)(c2ccccc2)c2ccccc2)c(=O)[nH]1`, the Selectivity Index [1] is reported as > 232 and the Activity (L6) is reported as 39 µM.
With `O=C(Cn1ccc(=O)[nH]c1=O)NCCCNC(c1ccccc1)(c1ccccc1)c1ccccc1` the Ki (dUTP pyrophosphatase) was 23.1 µM, the Ki [2] was > 1000 µM and the Selectivity Index [1] was > 43. It also gave an IC50 (Plasmodium falciparum) of 2.5 µM and an Activity (L6) of 102.2 µM.
With `CC(C)(C)[Si](NCCCCCCn1ccc(=O)[nH]c1=O)(c1ccccc1)c1ccccc1` the Ki (dUTP pyrophosphatase) was 8.5 µM, the Ki [2] was > 1000 µM and the Selectivity Index [1] was > 117. The IC50 (Plasmodium falciparum) was 3.9 µM and the Activity (L6) was 18 µM.
In the case of `CC(C)(C)[Si](OCCCCNC(=O)Cn1ccc(=O)[nH]c1=O)(c1ccccc1)c1ccccc1`, the Ki (dUTP pyrophosphatase) is reported as > 1000 µM, the Ki [2] is reported as > 1000 µM and the Selectivity Index [1] is reported as > 1. For the same molecule, the IC50 (Plasmodium falciparum) was 3.7 µM and the Activity (L6) was 33.4 µM.
In the case of `O=C(Cn1ccc(=O)[nH]c1=O)NCCCCNC(c1ccccc1)(c1ccccc1)c1ccccc1`, the Ki (dUTP pyrophosphatase) is reported as > 1000 µM, the Ki [2] is reported as > 1000 µM and the Selectivity Index [1] is reported as > 1. It also gave an IC50 (Plasmodium falciparum) of 2.9 µM and an Activity (L6) of 42.7 µM.
With `O=C(Cn1ccc(=O)[nH]c1=O)N(CCO)CCNC(c1ccccc1)(c1ccccc1)c1ccccc1` the Ki (dUTP pyrophosphatase) was > 1000 µM, the Ki [2] was > 1000 µM and the Selectivity Index [1] was > 1. For the same molecule, the IC50 (Plasmodium falciparum) was > 83 µM and the Activity (L6) was > 373 µM.
For `CC(C)(C)[Si](OCCCNC(=O)Cn1ccc(=O)[nH]c1=O)(c1ccccc1)c1ccccc1`, the Ki (dUTP pyrophosphatase) was > 1000 µM, the Ki [2] was > 1000 µM and the Selectivity Index [1] was > 1. For the same molecule, the IC50 (Plasmodium falciparum) was 4.6 µM and the Activity (L6) was 88.9 µM.
With `O=C(Cn1ccc(=O)[nH]c1=O)NCCNC(c1ccccc1)(c1ccccc1)c1ccccc1` the Ki (dUTP pyrophosphatase) was 37.3 µM, the Ki [2] was > 1000 µM and the Selectivity Index [1] was > 26. For the same molecule, the IC50 (Plasmodium falciparum) was 4.2 µM and the Activity (L6) was 53 µM.
